Assay results reported in ChEMBL document CHEMBL3885861, “Open TG-GATES”.

Species: Rattus norvegicus
Experiment: Open TG-GATES - Regimen: Single
Assay type: toxicity, organism-based, Sprague-Dawley
Design: regimen Single, gender Male, age 6 weeks
Details: in vivo, po, 300 mg/kg, route gavage, dose level High; for APTT / Bas / Eos / Fbg / Hb / Ht / Lym / MCH / MCHC / MCV / Mono / Neu / PT / Plat / RBC / Ret / WBC: tissue Blood; for KIDNEY_L / KIDNEY_R / KIDNEY_TOTAL: tissue Kidney; for LIVER: tissue Liver; for A/G / ALP / ALT / AST / BUN / CRE / Ca / Cl / DBIL / GLC / IP / K / LDH / Na / PL / RALB / TBIL / TC / TG / TP / gamma-GTP: tissue Plasma

`CCc1oc2ccccc2c1C(=O)c1cc(I)c(O)c(I)c1` [BENZIODARONE] gave a TERMINAL_BW (3 h) of 211.6 g, an APTT (3 h) of 17 s and a Bas (3 h) of 0%. For the same compound, the Eos (3 h) was 0.2%, the Fbg (3 h) was 206 mg/dL and the Hb (3 h) was 13 g/dL. The Ht (3 h) was 39%, the Lym (3 h) was 75.8% and the MCH (3 h) was 21.6 pg. For the same compound, the MCHC (3 h) was 33.3%, the MCV (3 h) was 65 fL and the Mono (3 h) was 7.4%. The Neu (3 h) was 16.4%, the PT (3 h) was 11.9 s and the Plat (3 h) was 107 x10_4/uL. It also gave an RBC (3 h) of 600.4 x10_4/ul, a Ret (3 h) of 11.4% and a WBC (3 h) of 93.8 x10_2/uL. For the same compound, the KIDNEY_L (3 h) was 0.9 g, the KIDNEY_R (3 h) was 1 g and the KIDNEY_TOTAL (3 h) was 1.9 g. It also gave an LIVER (3 h) of 10 g, an A/G (3 h) of 2 and an ALP (3 h) of 893 IU/L. For the same compound, the ALT (3 h) was 37.8 IU/L, the AST (3 h) was 64.6 IU/L and the BUN (3 h) was 16.4 mg/dL. The CRE (3 h) was 0.6 mg/dL, the Ca (3 h) was 10.5 mg/dL and the Cl (3 h) was 102 meq/L. The DBIL (3 h) was 0.056 mg/dL, the GLC (3 h) was 230.8 mg/dL and the IP (3 h) was 9.7 mg/dL. For the same compound, the K (3 h) was 4.7 meq/L, the LDH (3 h) was 102.8 IU/L and the Na (3 h) was 139 meq/L. It also gave a PL (3 h) of 133.6 mg/dL, an RALB (3 h) of 3.5 g/dL and a TBIL (3 h) of 0.5 mg/dL. It also gave a TC (3 h) of 71.4 mg/dL, a TG (3 h) of 71.4 mg/dL and a TP (3 h) of 5.3 g/dL. The gamma-GTP (3 h) was 1.2 IU/L, the TERMINAL_BW (6 h) was 214.2 g and the APTT (6 h) was 18.2 s. The Bas (6 h) was 0%, the Eos (6 h) was 1% and the Fbg (6 h) was 205.8 mg/dL. The Hb (6 h) was 13 g/dL, the Ht (6 h) was 38.8% and the Lym (6 h) was 79%. It also gave an MCH (6 h) of 21.9 pg, an MCHC (6 h) of 33.6% and an MCV (6 h) of 65.4 fL. For the same compound, the Mono (6 h) was 3.6%, the Neu (6 h) was 16.8% and the PT (6 h) was 12.2 s. The Plat (6 h) was 113.1 x10_4/uL, the RBC (6 h) was 593.6 x10_4/ul and the Ret (6 h) was 11.2%. It also gave a WBC (6 h) of 70.8 x10_2/uL, a KIDNEY_L (6 h) of 0.9 g and a KIDNEY_R (6 h) of 1 g. It also gave a KIDNEY_TOTAL (6 h) of 1.9 g, an LIVER (6 h) of 9.4 g and an A/G (6 h) of 2.1. For the same compound, the ALP (6 h) was 980.4 IU/L, the ALT (6 h) was 39.6 IU/L and the AST (6 h) was 64.4 IU/L. It also gave a BUN (6 h) of 14.6 mg/dL, a CRE (6 h) of 0.6 mg/dL and a Ca (6 h) of 10.4 mg/dL. It also gave a Cl (6 h) of 102.8 meq/L, a DBIL (6 h) of 0.052 mg/dL and a GLC (6 h) of 235.6 mg/dL. The IP (6 h) was 10.3 mg/dL, the K (6 h) was 4.5 meq/L and the LDH (6 h) was 89 IU/L. The Na (6 h) was 140.2 meq/L, the PL (6 h) was 129.4 mg/dL and the RALB (6 h) was 3.6 g/dL. For the same compound, the TBIL (6 h) was 0.4 mg/dL, the TC (6 h) was 73.8 mg/dL and the TG (6 h) was 36 mg/dL. The TP (6 h) was 5.2 g/dL, the gamma-GTP (6 h) was 1.4 IU/L and the TERMINAL_BW (9 h) was 215.8 g. It also gave an APTT (9 h) of 18.7 s, a Bas (9 h) of 0% and an Eos (9 h) of 0.6%. It also gave a Fbg (9 h) of 208.2 mg/dL, a Hb (9 h) of 13.5 g/dL and a Ht (9 h) of 40.2%. The Lym (9 h) was 80%, the MCH (9 h) was 22.1 pg and the MCHC (9 h) was 33.6%. The MCV (9 h) was 65.7 fL, the Mono (9 h) was 6.8% and the Neu (9 h) was 12.8%. It also gave a PT (9 h) of 12.2 s, a Plat (9 h) of 114.6 x10_4/uL and an RBC (9 h) of 612 x10_4/ul. For the same compound, the Ret (9 h) was 9.3%, the WBC (9 h) was 88.9 x10_2/uL and the KIDNEY_L (9 h) was 1 g. It also gave a KIDNEY_R (9 h) of 1 g, a KIDNEY_TOTAL (9 h) of 2 g and an LIVER (9 h) of 9 g. For the same compound, the A/G (9 h) was 2.1, the ALP (9 h) was 976.4 IU/L and the ALT (9 h) was 38.2 IU/L. The AST (9 h) was 63 IU/L, the BUN (9 h) was 17 mg/dL and the CRE (9 h) was 0.6 mg/dL. The Ca (9 h) was 10.5 mg/dL, the Cl (9 h) was 103.8 meq/L and the DBIL (9 h) was 0.098 mg/dL. For the same compound, the GLC (9 h) was 214 mg/dL, the IP (9 h) was 10.8 mg/dL and the K (9 h) was 4.7 meq/L. The LDH (9 h) was 107.6 IU/L, the Na (9 h) was 141.8 meq/L and the PL (9 h) was 139.2 mg/dL. It also gave an RALB (9 h) of 3.7 g/dL, a TBIL (9 h) of 0.2 mg/dL and a TC (9 h) of 75.4 mg/dL. The TG (9 h) was 77 mg/dL, the TP (9 h) was 5.4 g/dL and the gamma-GTP (9 h) was 1.4 IU/L. It also gave a TERMINAL_BW (24 h) of 220.7 g, an APTT (24 h) of 16.9 s and a Bas (24 h) of 0%. For the same compound, the Eos (24 h) was 0.6%, the Fbg (24 h) was 200.8 mg/dL and the Hb (24 h) was 13.4 g/dL. For the same compound, the Ht (24 h) was 39.8%, the Lym (24 h) was 81% and the MCH (24 h) was 21.7 pg. The MCHC (24 h) was 33.8%, the MCV (24 h) was 64.4 fL and the Mono (24 h) was 6%. The Neu (24 h) was 12.6%, the PT (24 h) was 12.1 s and the Plat (24 h) was 120.3 x10_4/uL. For the same compound, the RBC (24 h) was 618.2 x10_4/ul, the Ret (24 h) was 9.6% and the WBC (24 h) was 106.3 x10_2/uL. It also gave a KIDNEY_L (24 h) of 1 g, a KIDNEY_R (24 h) of 1 g and a KIDNEY_TOTAL (24 h) of 2 g. It also gave an LIVER (24 h) of 11.9 g, an A/G (24 h) of 2.2 and an ALP (24 h) of 1044.4 IU/L. It also gave an ALT (24 h) of 36.2 IU/L, an AST (24 h) of 67.2 IU/L and a BUN (24 h) of 17.8 mg/dL. The CRE (24 h) was 0.6 mg/dL, the Ca (24 h) was 10.7 mg/dL and the Cl (24 h) was 104 meq/L. For the same compound, the DBIL (24 h) was 0.008 mg/dL, the GLC (24 h) was 184.8 mg/dL and the IP (24 h) was 8.3 mg/dL. For the same compound, the K (24 h) was 4.6 meq/L, the LDH (24 h) was 89.2 IU/L and the Na (24 h) was 141.2 meq/L. For the same compound, the PL (24 h) was 120.2 mg/dL, the RALB (24 h) was 3.9 g/dL and the TBIL (24 h) was 0.3 mg/dL. For the same compound, the TC (24 h) was 66.6 mg/dL, the TG (24 h) was 72 mg/dL and the TP (24 h) was 5.7 g/dL. It also gave a gamma-GTP (24 h) of 1.4 IU/L.
